Where two headings read alike, the source gives them in different places.
Key:
[1] = system: T47D cells; test: Cellular growth inhibition assay for T47D cells (CellTiter-Glo, 72 hours); assay type: cell-based, human; conditions: 72 hours treatment
Method: T47D cells were purchased from American Type Cell Culture (ATCC Cat #HTB-133) and then seeded on poly-D-lysine coated, black clear-bottom 384-well plates at 3000/well in 25 μL Dulbecco's Modified Eagle Medium (DMEM) supplemented with 10% w/w Fetal bovine serum (FBS), 0.2 units/mL recombinant human insulin (Gibco Cat #12585014), and 1% w/w Pen-Strep. Pen-Strep is a commercially available mixture of penicillin G and streptomycin, which is used in mammalian cell culture media to prevent bacterial contamination. Dulbecco's Modified Eagle Medium (DMEM) supplemented with 10% w/w fetal bovine serum (FBS), 0.2 units/mL recombinant human insulin, and 1% w/w Pen-Strep is herein referred to as Treatment Medium. Following seeding of cells in the plates, the plates were spun at 300×g for 30 seconds, then equilibrated to room temperature for 30 minutes, and then deposited in a humidified tissue culture incubator maintained at 37° C. with 5% CO2.
At 24 hours after seeding of the cells, dilutions of test compound were prepared in DMSO and dissolved in Treatment Medium, to achieve a final DMSO concentration of 0.5% w/w, thereby providing the Test Compound Solution. A 25 μL aliquot of the Test Compound Solution was added to cells in the well plates. An equal volume of a solution containing DMSO and Treatment Medium was used as a negative control. Following treatment of cells with Test Compound Solution or said equal volume of a solution containing DMSO and Treatment Medium, the plates were spun at 300×g for 30 seconds, and then left in an incubator for 72 hours.
At the end of the treatment duration, cell viability was quantified with CellTiter-Glo 2.0 reagent (Promega Cat #G9243). For this purpose, plates were equilibrated to room temperature for 30 minutes, and then 25 μL of CellTiter-Glo 2.0 reagent was added to cells in the plate wells. Plates were then agitated on a shaker for two minutes at 500 rpm and subsequently incubated at room temperature for 10 minutes. Following incubation, the plates were spun at 3000×g for 30 seconds, then sealed with an optical adhesive cover, and luminescence readings were measured with an EnVision Plate Reader (Perkin Elmer).
Data was normalized using zero luminescence for baseline. A four-parameter non-linear regression curve fit was applied to dose-response data in GraphPad Prism data analysis software to determine the half-maximal growth inhibitory concentration (GI50) for each test compound.

[2] = system: T-Rex 293 cell line SC3 cells lacking increased expression of androgen receptor protein; test: Cellular growth inhibition assay, T-Rex 293 SC3 cells without doxycycline (CellTiter-Glo, 72 hours); assay type: cell-based; conditions: T-Rex 293 cell line SC3 cells not exposed to doxycycline (lacking increased androgen receptor expression)
Summary of the method: (§1)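 Doxycycline (10 ng/mL) was either included or omitted to toggle wild-type androgen receptor expression in SC3 cells, a T-Rex 293 clone, grown in stripped-serum, phenol red-free medium. After 72 hours with compound, viable cells were quantified by CellTiter-Glo 2.0.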

[3] = system: VCaP cells; test: Cellular growth inhibition assay for VCaP cells (CellTiter-Glo, 72 hours); assay type: cell-based, human
Summary of the method: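 Luminescent viability signal after 72 h of compound exposure gave GI50 values by four-parameter nonlinear regression. Compounds were added in 0.5% DMSO to cells plated 24 h earlier at 5000/well in DMEM containing 10% FBS.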

[4] = system: T-Rex 293 cell line SC3 cells having increased expression of androgen receptor protein due to exposure to doxycycline; test: Cellular growth inhibition assay, T-Rex 293 SC3 cells with doxycycline (CellTiter-Glo, 72 hours); assay type: cell-based; conditions: 72 h, T-Rex 293 SC3 cells with increased androgen receptor expression due to doxycycline (10 ng/mL)
Summary of the method: as §1

GI50 ([1]; Homo sapiens, T47D, 72 h) [nM] | GI50 ([3]; Homo sapiens, VCaP, 72 h) [nM] | GI50 [1] [nM] | GI50 [3] [nM] | SMILES | GI50 ([2]; 72 h) [nM] | GI50 [4] [nM] | GI50 [2] [nM]
500 to 1500 | < 500 | – | – | Cc1sc2c(c1C)C(c1ccc(O[C@H]3C[C@@]4(CCCN(c5ccc(C(=O)N[C@H]6CC[C@H](Oc7ccc(C#N)c(Cl)c7)CC6)nn5)C4)C3)cc1)=N[C@@H](Cc1ncco1)c1nnc(C)n1-2 [I-92] | < 500 | < 500 | –
500 to 1500 | < 500 | – | – | Cc1sc2c(c1C)C(c1ccc(O[C@H]3C[C@]4(CCCN(c5ccc(C(=O)N[C@H]6CC[C@H](Oc7ccc(C#N)c(Cl)c7)CC6)nn5)C4)C3)cc1)=N[C@@H](Cc1ncco1)c1nnc(C)n1-2 [I-93] | < 500 | < 500 | –
< 500 | < 500 | – | – | Cc1sc2c(c1C)C(c1ccc(O[C@H]3CC[C@@]4(CCCN(c5ccc(C(=O)N[C@H]6CC[C@H](Oc7ccc(C#N)c(Cl)c7)CC6)nn5)C4)C3)cc1)=N[C@@H](Cc1ncco1)c1nnc(C)n1-2 [I-96] | < 500 | < 500 | –
< 500 | < 500 | – | – | Cc1sc2c(c1C)C(c1ccc(O[C@H]3CC[C@]4(CCCN(c5ccc(C(=O)N[C@H]6CC[C@H](Oc7ccc(C#N)c(Cl)c7)CC6)nn5)C4)C3)cc1)=N[C@@H](Cc1ncco1)c1nnc(C)n1-2 [I-97] | < 500 | < 500 | –
< 500 | < 500 | – | – | Cc1sc2c(c1C)C(c1ccc(O[C@@H]3CC[C@]4(CCCN(c5ccc(C(=O)N[C@H]6CC[C@H](Oc7ccc(C#N)c(Cl)c7)CC6)nn5)C4)C3)cc1)=N[C@@H](Cc1ncco1)c1nnc(C)n1-2 [I-98] | < 500 | < 500 | –
< 500 | < 500 | – | – | Cc1sc2c(c1C)C(c1ccc(OC3CN(C4CCN(c5ccc(C(=O)N[C@H]6CC[C@H](Oc7ccc(C#N)c(Cl)c7)CC6)nn5)C4)C3)cc1)=N[C@@H](Cc1ncco1)c1nnc(C)n1-2 (stereo partly shown) [I-101] | < 500 | < 500 | –
< 500 | < 500 | – | – | Cc1sc2c(c1C)C(c1ccc(OC[C@H]3CC[C@@]4(CCCN(c5ccc(C(=O)N[C@H]6CC[C@H](Oc7ccc(C#N)c(Cl)c7)CC6)nn5)C4)C3)cc1)=N[C@@H](Cc1ncco1)c1nnc(C)n1-2 [I-102] | < 500 | < 500 | –
< 500 | < 500 | – | – | Cc1sc2c(c1C)C(c1ccc(OC[C@@H]3CC[C@@]4(CCCN(c5ccc(C(=O)N[C@H]6CC[C@H](Oc7ccc(C#N)c(Cl)c7)CC6)nn5)C4)C3)cc1)=N[C@@H](Cc1ncco1)c1nnc(C)n1-2 [I-103] | < 500 | < 500 | –
– | – | < 500 | < 500 | Cc1sc2c(c1C)C(c1ccc(OC[C@H]3C[C@]4(CCCN(c5ccc(C(=O)N[C@H]6CC[C@H](Oc7ccc(C#N)c(Cl)c7)CC6)nn5)C4)C3)cc1)=N[C@@H](Cc1ncco1)c1nnc(C)n1-2 [I-104] | – | < 500 | < 500
< 500 | < 500 | – | – | Cc1sc2c(c1C)C(c1ccc(OC[C@H]3C[C@@]4(CCCN(c5ccc(C(=O)N[C@H]6CC[C@H](Oc7ccc(C#N)c(Cl)c7)CC6)nn5)C4)C3)cc1)=N[C@@H](Cc1ncco1)c1nnc(C)n1-2 [I-105] | < 500 | < 500 | –
> 3000 | < 500 | – | – | CNc1ccc2c(n1)C(c1ccc(OC3CC4(CCN(c5ccc(C(=O)N[C@H]6CC[C@H](Oc7ccc(C#N)c(Cl)c7)CC6)nn5)CC4)C3)cc1)=NCc1onc(C)c1-2 [I-106] | > 3000 | < 500 | –
> 3000 | > 3000 | – | – | CNc1ccc2c(n1)C(c1ccc(OC3CC4(CCCN(c5ccc(C(=O)N[C@H]6CC[C@H](Oc7ccc(C#N)c(Cl)c7)CC6)nn5)C4)C3)cc1)=NCc1onc(C)c1-2 (stereo partly shown) [I-107] | > 3000 | < 500 | –
< 500 | < 500 | – | – | Cc1sc2c(c1C)C(c1ccc(OC3CC4(CCN(c5ccc(C(=O)N[C@H]6CC[C@H](Oc7ccc(C#N)c(Cl)c7)CC6)cc5)CC4)C3)cc1)=N[C@@H](Cc1ncco1)c1nnc(C)n1-2 [I-108] | < 500 | < 500 | –
< 500 | < 500 | – | – | Cc1sc2c(c1C)C(c1ccc(CCOC3CCN(c4ccc(C(=O)N[C@H]5CC[C@H](Oc6ccc(C#N)c(Cl)c6)CC5)nn4)CC3)cc1)=NC(Cc1ncco1)c1nnc(C)n1-2 (stereo partly shown) [I-110] | > 3000 | < 500 | –
> 3000 | < 500 | – | – | Cc1sc2c(c1C)C(c1ccc(CC3CC4(CCN(c5ccc(C(=O)N[C@H]6CC[C@H](Oc7ccc(C#N)c(Cl)c7)CC6)nn5)CC4)C3)cc1)=N[C@H](Cc1ncco1)c1nnc(C)n1-2 [I-111] | > 3000 | < 500 | –
< 500 | < 500 | – | – | Cc1sc2c(c1C)C(c1ccc(CC3CC4(CCN(c5ccc(C(=O)N[C@H]6CC[C@H](Oc7ccc(C#N)c(Cl)c7)CC6)nn5)CC4)C3)cc1)=N[C@@H](Cc1ncco1)c1nnc(C)n1-2 [I-112] | < 500 | < 500 | –
< 500 | < 500 | – | – | Cc1sc2c(c1C)C(c1ccc(CC3CN(CC4CCN(c5ccc(C(=O)N[C@H]6CC[C@H](Oc7ccc(C#N)c(Cl)c7)CC6)nn5)CC4)C3)cc1)=N[C@@H](Cc1ncco1)c1nnc(C)n1-2 [I-113] | 500 to 1500 | < 500 | –
500 to 1500 | 500 to 1500 | – | – | Cc1sc2c(c1C)C(c1ccc(CC3CN(CC4CCN(c5ccc(C(=O)N[C@H]6CC[C@H](Oc7ccc(C#N)c(Cl)c7)CC6)nn5)CC4)C3)cc1)=N[C@H](Cc1ncco1)c1nnc(C)n1-2 [I-114] | 1500 to 3000 | < 500 | –
< 500 | < 500 | – | – | Cc1sc2c(c1C)C(c1ccc(CC3CN([C@@H]4CCN(c5ccc(C(=O)N[C@H]6CC[C@H](Oc7ccc(C#N)c(Cl)c7)CC6)nn5)C4)C3)cc1)=N[C@@H](Cc1ncco1)c1nnc(C)n1-2 [I-115] | < 500 | < 500 | –
< 500 | < 500 | – | – | Cc1sc2c(c1C)C(c1ccc(CC3CN([C@H]4CCN(c5ccc(C(=O)N[C@H]6CC[C@H](Oc7ccc(C#N)c(Cl)c7)CC6)nn5)C4)C3)cc1)=N[C@@H](Cc1ncco1)c1nnc(C)n1-2 [I-116] | < 500 | < 500 | –
1500 to 3000 | 1500 to 3000 | – | – | Cc1sc2c(c1C)C(c1ccc(C[C@H]3C[C@@]4(CCCN(c5ccc(C(=O)N[C@H]6CC[C@H](Oc7ccc(C#N)c(Cl)c7)CC6)nn5)C4)C3)cc1)=N[C@@H](Cc1ncco1)c1nnc(C)n1-2 [I-118] | > 3000 | > 3000 | –
< 500 | < 500 | – | – | Cc1sc2c(c1C)C(c1ccc(C[C@H]3C[C@]4(CCCN(c5ccc(C(=O)N[C@H]6CC[C@H](Oc7ccc(C#N)c(Cl)c7)CC6)nn5)C4)C3)cc1)=N[C@@H](Cc1ncco1)c1nnc(C)n1-2 [I-119] | < 500 | < 500 | –
< 500 | > 3000 | – | – | Cc1sc2c(c1C)C(c1ccc(C[C@H]3C[C@@H](C4CCCN(c5ccc(C(=O)N[C@H]6CC[C@H](Oc7ccc(C#N)c(Cl)c7)CC6)nn5)C4)C3)cc1)=N[C@@H](Cc1ncco1)c1nnc(C)n1-2 (stereo partly shown) [I-120] | > 3000 | < 500 | –
1500 to 3000 | > 3000 | – | – | Cc1sc2c(c1C)C(c1ccc(C[C@H]3C[C@H](C4CCCN(c5ccc(C(=O)N[C@H]6CC[C@H](Oc7ccc(C#N)c(Cl)c7)CC6)nn5)C4)C3)cc1)=N[C@@H](Cc1ncco1)c1nnc(C)n1-2 (stereo partly shown) [I-121] | > 3000 | 1500 to 3000 | –
< 500 | < 500 | – | – | Cc1sc2c(c1C)C(c1ccc(CC3CC(C4CCCN(c5ccc(C(=O)N[C@H]6CC[C@H](Oc7ccc(C#N)c(Cl)c7)CC6)nn5)C4)C3)cc1)=N[C@@H](Cc1ncco1)c1nnc(C)n1-2 (stereo partly shown) [I-122] | < 500 | < 500 | –
